# In article PMC8448819, “The Arabidopsis MIK2 receptor elicits immunity by sensing a conserved signature from phytocytokines and microbes” (Nature Communications, 2021):
# Values joined by “and” are separate entries in the source; they are usually repeats but may differ in a detail not shown here. Identical values can stand only once. Like-named read-outs stand apart in the source and are kept apart here.
# Legend:
# [1] = test system: WRKY30, WRKY33 and CYP81F2 expression, mik2 seedlings; assay: RT-qPCR of defense genes, mik2 mutants; assay type: in vivo, Arabidopsis thaliana
# [2] = test system: mik2-like, rlk7, pepr1,2, hae/hsl2 and fls2 mutant seedlings; assay: Root growth assay, other receptor kinase mutants; assay type: in vivo, Arabidopsis thaliana; settings: Supplementary Fig. 4c
# Text: The Arabidopsis thaliana accession Columbia-0 (Col-0) was used as wild type (WT). T-DNA insertion mutants of mik2-1 (SALK_061769), mik2-2 (SALK_046987), mik2-like (SALK_112341), and rlk7-3 (SALK_120595) were obtained from the Nottingham Arabidopsis Stock Centre (NASC). The fls2 (SALK_141277), bak1-4, bik1-1/pbl1-1, bak1-5/serk4-1, rbohd mutants, and the transgenic line expressing p35S::GFP have been reported previously[19],[62],[63]. The hae/hsl2 mutant was kindly provided by Dr. Reidunn B. Aalen (University of Oslo, Norway), the pepr1-2/pepr2-2 (pepr1,2) mutant by Dr. Zhi Qi (Inner Mongolia University, China), the scoop12 mutant by Dr. Sébastien Aubourg (INRA, France), a transgenic line expressing p35S::Aequorin by Dr. Marc Knight (Durham University, UK), transgenic line expressing pMYB51::GUS by Dr. Frederick M. Ausubel (Harvard Medical School, USA). […]
# Cold stratified seeds were surface-sterilized with 70% (v/v) ethanol for 5 min and were sown on ½MS plates with or without peptides at indicated concentrations. Ten-day-old seedlings grown on plates vertically in a growth chamber were photographed, and the root lengths of seedlings were measured using Image J (http://rsb.info.nih.gov/ij/).
# [3] = test system: mik2-1 and mik2-2 mutant seedlings; assay type: in vivo, Arabidopsis thaliana; settings: for Root length (Fig. 3d) / Root length (Fig. 3b) / Root length (Fig. 3e): individual values, one per line
# Arabidopsis WT seedlings = assay: ROS assay (luminol), WT seedlings; assay type: in vivo, Arabidopsis thaliana; settings: for ROS production, total luminescence (Fig. 2h): WT seedlings; for ROS production, total luminescence (Fig. 3f): WT
# mik2 mutant seedlings = assay: ROS assay (luminol), mik2 mutants; assay type: in vivo, Arabidopsis thaliana
# Experimental: (§1) ROS burst was determined by a luminol-based assay. […] Then, ddH2O was replaced by 200 µL of reaction solution containing 50 µM of luminol, and 10 µg/mL of horseradish peroxidase (Sigma-Aldrich) supplemented with or without 100 nM or 1 μM peptide. Luminescence was measured immediately after adding the solution with a luminometer (Glomax 20/20n, Promega) with a one-second interval for 15 min. The total values of ROS production were indicated as means of the relative light units (RLUs).
# [4] = test system: MPK3, MPK4 and MPK6 phosphorylation, WT seedlings; assay: MAPK assay (α-pERK1/2 immunoblot), WT; assay type: in vivo, Arabidopsis thaliana; settings: Supplementary Fig. 3i
# Experimental: Ten-day-old seedlings grown vertically on ½MS plates were transferred to ddH2O overnight for recovery. Then, ddH2O was replaced by 100 nM peptides for the indicated time.
# Arabidopsis = settings: cited from earlier work
# Text: Some plant LRR-RKs are pattern recognition receptors (PRRs) that recognize pathogen- or microbe-associated molecular patterns (PAMPs or MAMPs) or damage-associated molecular patterns (DAMPs) and initiate pattern-triggered immunity (PTI)[10]-[13]. […] Despite the differ ... || Plant plasma membrane-resident RKs perceive diverse exogenous and endogenous signals via the extracellular domain and activate intracellular responses through the cytoplasmic kinase domain[1]-[3]. The chimeric receptors with the swapped extracellular and intracellular domains between different RKs have been used to study the specificity of signal perception and signaling activation[48]-[52]. The extracellular domains of RKs determine the ligand-binding specificity[50],[51],[53]. The intracellular kinase domains of different RKs also trigger specific responses. […] It remains unknown why plants have evolved so many SCOOPs and the functional specificity for different SCOOPs. […] SCOOP12, the most studied SCOOP, is highly expressed in roots (Fig. 2b), and was indicated to regulate ro ...
# [5] = test system: RLK7^ECD-MIK2^TK/rlk7 and RLK7/rlk7 transgenic seedlings; assay: ROS assay (luminol), RLK7/rlk7 and RLK7^ECD-MIK2^TK/rlk7 seedlings; assay type: in vivo, Arabidopsis thaliana; settings: for ROS production, total: Fig. 1d
# Experimental: as §1
substance,measurement,setting,value
"PNGDIFTGPSGSGHGGGR [SCOOP10B, synthesized SCOOP peptide corresponding to the SxS motif]",CYP81F2 expression (Fig. 3i),"[1]; mik2-1, repeat 1",1.45
same,CYP81F2 expression (Fig. 3i),"[1]; mik2-1, repeat 2",1.97
same,CYP81F2 expression (Fig. 3i),"[1]; mik2-1, repeat 3",3.18
same,CYP81F2 expression (Fig. 3i),"[1]; mik2-1, repeat 4",1.68
same,CYP81F2 expression (Fig. 3i),"[1]; mik2-2, repeat 1",1.42
same,CYP81F2 expression (Fig. 3i),"[1]; mik2-2, repeat 2",2.13
same,CYP81F2 expression (Fig. 3i),"[1]; mik2-2, repeat 3",3.67
same,CYP81F2 expression (Fig. 3i),"[1]; mik2-2, repeat 4",5.95
same,"WRKY30, WRKY33 and CYP81F2 expression","[1]; mik2 mutants, 1 µM, 1 h, RT-qPCR",abolished in mik2 mutants
same,response of fls2,"[2]; fls2, root growth",responded to SCOOP10^B similarly to WT plants
same,"response of MIK2L, RLK7, PEPR1, PEPR2, HAE and HSL2 mutants",[2]; root growth,not involved in responsiveness to SCOOP10^B
same,"root growth retardation, concentration series, mik2-1",[3]; 1 to 100 nM SCOOP10^B,completely abolished in mik2-1
same,Root length (Fig. 3d),"[3]; mik2-1, 1 nM",32.99 and 31.78 and 33.56 and 34.62 and 30.06 and 35.81 and 29.29
same,Root length (Fig. 3d),"[3]; mik2-1, 10 nM",32.32 and 29.96 and 32.75 and 34.52 and 30.66 and 29.77 and 30.84 and 33.97
same,Root length (Fig. 3d),"[3]; mik2-1, 100 nM",29.63 and 33.44 and 32.76 and 35.81 and 32.02 and 28.87 and 34.13 and 30.25
same,Root length (Fig. 3b),[3]; mik2-1,25.833 and 26.302 and 24.889 and 27.342 and 26.636 and 27.534 and 28.728 and 25.164 and 27.761
same,Root length (Fig. 3e),[3]; mik2-1,22.911 and 21.027 and 23.034 and 25.697 and 26.332 and 26.187 and 22.644 and 27.144 and 23.211 and 23.187
same,root growth inhibition in mik2,"[3]; mik2-1 and mik2-2, 10-day-old seedlings, 1 µM peptide",insensitive to the treatment of SCOOP10^B
same,Root length (Fig. 3b),[3]; mik2-2,28.386 and 27.709 and 30.155 and 29.447 and 28.883 and 28.332 and 29.63 and 28.607 and 26.83
same,Root length (Fig. 3e),[3]; mik2-2,22.343 and 22.532 and 23.158 and 21.859 and 27.286 and 27.619 and 26.253 and 24.148 and 29.659 and 25.362
same,potency in triggering PTI responses,"Arabidopsis WT seedlings; Ca^2+, ROS, MAPK, compared with other SCOOPs",more potent activities than others in triggering PTI responses
same,"ROS production, total luminescence (Fig. 2h)",Arabidopsis WT seedlings; repeat 1,9151950
same,"ROS production, total luminescence (Fig. 2h)",Arabidopsis WT seedlings; repeat 2,10580582
same,"ROS production, total luminescence (Fig. 2h)",Arabidopsis WT seedlings; repeat 3,7374543
same,"ROS production, total luminescence (Fig. 3f)",Arabidopsis WT seedlings; repeat 1,36200000
same,"ROS production, total luminescence (Fig. 3f)",Arabidopsis WT seedlings; repeat 2,29800000
same,"ROS production, total luminescence (Fig. 3f)",Arabidopsis WT seedlings; repeat 3,21300000
same,"ROS production, total luminescence (Fig. 3f)","mik2 mutant seedlings; mik2-1, repeat 1",113000
same,"ROS production, total luminescence (Fig. 3f)","mik2 mutant seedlings; mik2-1, repeat 2",107000
same,"ROS production, total luminescence (Fig. 3f)","mik2 mutant seedlings; mik2-1, repeat 3",114000
same,"ROS production, total luminescence (Fig. 3f)","mik2 mutant seedlings; mik2-2, repeat 1",119000
same,"ROS production, total luminescence (Fig. 3f)","mik2 mutant seedlings; mik2-2, repeat 2",155000
same,"ROS production, total luminescence (Fig. 3f)","mik2 mutant seedlings; mik2-2, repeat 3",128000
same,ROS production in mik2,"mik2 mutant seedlings; mik2 mutants, 100 nM SCOOPs or 1 µM FocSCOOPL",abolished in mik2 mutants
same,MAPK activation in shoots and roots,[4],triggered the MAPK activation in both shoots and roots
"RLASGP(OH)SPRGRGH [PIP1, secreted peptide, ligand of RLK7]",BIK1 dependence of responses,Arabidopsis,BIK1-independent
same,"ROS production, total","[5]; RLK7/rlk7 L4, 100 nM PIP1, one-week-old seedlings, repeat 1",239291 RLU
same,"ROS production, total","[5]; RLK7/rlk7 L4, 100 nM PIP1, one-week-old seedlings, repeat 2",252204 RLU
same,"ROS production, total","[5]; RLK7/rlk7 L4, 100 nM PIP1, one-week-old seedlings, repeat 3",283681 RLU
same,"ROS production, total","[5]; RLK7/rlk7 L4, 100 nM PIP1, one-week-old seedlings, repeat 4",318922 RLU
same,"ROS production, total","[5]; RLK7/rlk7 L5, 100 nM PIP1, one-week-old seedlings, repeat 1",275783 RLU
same,"ROS production, total","[5]; RLK7/rlk7 L5, 100 nM PIP1, one-week-old seedlings, repeat 2",220663 RLU
same,"ROS production, total","[5]; RLK7/rlk7 L5, 100 nM PIP1, one-week-old seedlings, repeat 3",252086 RLU
same,"ROS production, total","[5]; RLK7/rlk7 L5, 100 nM PIP1, one-week-old seedlings, repeat 4",358908 RLU
same,"ROS production, total","[5]; RLK7ECD-MIK2TK/rlk7 L9, 100 nM PIP1, one-week-old seedlings, repeat 1",1753777 RLU
same,"ROS production, total","[5]; RLK7ECD-MIK2TK/rlk7 L9, 100 nM PIP1, one-week-old seedlings, repeat 2",1827311 RLU
same,"ROS production, total","[5]; RLK7ECD-MIK2TK/rlk7 L9, 100 nM PIP1, one-week-old seedlings, repeat 3",2926668 RLU
same,"ROS production, total","[5]; RLK7ECD-MIK2TK/rlk7 L9, 100 nM PIP1, one-week-old seedlings, repeat 4",3467034 RLU
same,"ROS production, total","[5]; RLK7ECD-MIK2TK/rlk7 L9, 100 nM PIP1, one-week-old seedlings, repeat 5",1491639 RLU
same,"ROS production, total","[5]; RLK7ECD-MIK2TK/rlk7 L16, 100 nM PIP1, one-week-old seedlings, repeat 1",3868648 RLU
same,"ROS production, total","[5]; RLK7ECD-MIK2TK/rlk7 L16, 100 nM PIP1, one-week-old seedlings, repeat 2",1259772 RLU
same,"ROS production, total","[5]; RLK7ECD-MIK2TK/rlk7 L16, 100 nM PIP1, one-week-old seedlings, repeat 3",2844613 RLU
same,"ROS production, total","[5]; RLK7ECD-MIK2TK/rlk7 L16, 100 nM PIP1, one-week-old seedlings, repeat 4",3037378 RLU
same,"ROS production, total","[5]; RLK7ECD-MIK2TK/rlk7 L16, 100 nM PIP1, one-week-old seedlings, repeat 5",940879 RLU
same,ROS production,"[5]; RLK7/rlk7, 100 nM PIP1",weakly induced ROS production
same,ROS production,"[5]; RLK7^ECD-MIK2^TK/rlk7, 100 nM PIP1",robust production of ROS
